Assay results reported in ChEMBL document CHEMBL1159238, “Brevitaxin, a new diterpenolignan from the bark of Taxus brevifolia” (1995).
Calls of active or inactive are those of the source. No cut-off for these calls is given here.

How the values were obtained:
NCI60 = assay: Cytotoxicity against human NCI60 cells; format: functional, cell-based
DU-145 = assay: Cytotoxicity against human DU145 cells; format: functional; conditions: read-out: ED50 (the source's name)

COc1cc([C@@H]2Oc3c(C(C)C)cc4c(=O)cc5c(cc4c3O[C@H]2CO)C=CC(=O)C5(C)C)ccc1O [BREVITAXIN]
Activity (NCI60): Active
EC50 (DU-145): 6.8 µM
